Patent publication US20150011542A1, “Methods of Treating Adverse Intestinal Effects of Non-Steroidal Anti-Inflammatory Drugs” (University of Connecticut, priority 2012, published 2015)
“Also recorded” adds a separate entry of the source.

Columns and labels:
E. coli β-glucuronidase = molecular target: T1, E. coli β-glucuronidase (Escherichia coli, UniProt P05804); assay: Inhibition of E. coli β-glucuronidase cleavage of diclofenac 1-β-O-acyl glucuronide (HPLC-UV of DCF product); assay type: biochemical
T1 construct: made in house
T1 sequence (P05804 whole entry): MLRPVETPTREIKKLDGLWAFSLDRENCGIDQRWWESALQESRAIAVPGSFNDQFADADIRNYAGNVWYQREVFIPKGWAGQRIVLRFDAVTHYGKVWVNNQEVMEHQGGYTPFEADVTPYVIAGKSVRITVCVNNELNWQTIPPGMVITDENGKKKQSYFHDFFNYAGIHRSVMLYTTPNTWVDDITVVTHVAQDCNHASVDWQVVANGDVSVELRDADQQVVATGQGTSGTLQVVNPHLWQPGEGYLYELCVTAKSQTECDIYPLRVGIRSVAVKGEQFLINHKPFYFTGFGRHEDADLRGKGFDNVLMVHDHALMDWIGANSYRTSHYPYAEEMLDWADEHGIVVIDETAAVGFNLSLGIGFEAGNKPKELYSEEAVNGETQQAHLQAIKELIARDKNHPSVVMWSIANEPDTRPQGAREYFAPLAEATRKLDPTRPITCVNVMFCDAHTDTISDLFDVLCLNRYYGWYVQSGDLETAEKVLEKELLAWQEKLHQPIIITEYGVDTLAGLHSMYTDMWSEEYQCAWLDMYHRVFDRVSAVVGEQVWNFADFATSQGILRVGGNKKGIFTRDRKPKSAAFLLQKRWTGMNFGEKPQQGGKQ

[1] = system: DCF-induced small intestinal ulceration; assay: Diclofenac-induced small intestinal ulceration in mice (NBT staining, morphometry, histopathology); assay type: in vivo
Description: Male C57BL/6J mice were obtained from The Jackson Laboratory (Bar Harbor, Me.). The mice were acclimatized for three weeks before the experiments and were 10-12 weeks of age at the start of the experiments. The animals were kept on a 14:10-hour light:dark cycle. They received mouse chow (Teklad Global Rodent Diet, Harlan Laboratories, Boston, Mass.) and water ad libitum. All studies were approved by the Institutional Animal Care and Use Committee of the University of Connecticut. […] All animals were treated at five hours before the start of the dark cycle. […] Control animals received methyl cellulose and/or Solutol HS-15.
(§1) Enteropathy was assessed and graded as described previously (Ramirez-Alcantara et al., Am. J. Physiol. (Gastrointest. Liver Physiol.), 297:G990-G998 (2009)). Briefly, mice were sacrificed by CO2 inhalation at 18 hours post-DCF (when the development of mucosal injury was maximal). A midline incision was made and blood was obtained via cardiac puncture. Serum was prepared and frozen at −80° C. until use for analysis. The entire small intestine (from the gastroduodenal junction to the ileocecal junction) was removed and opened longitudinally along the anti-mesenteric side. The tissue was rinsed in cold PBS and incubated for 15 minutes in 1 mM nitroblue tetrazolium (NBT) solution containing 16 mM HEPES-NaOH, 125 mM NaCl buffer, 3.5 mM KCl, and 10 mM glucose. Next, the tissues were fixed in 10% zinc formalin for 24 hours, washed, and transferred to 70% ethanol. The intestine was metrically divided into four quartiles of equal length and evaluated at 10× magnification for quantitative and qualitative analysis of mucosal injury, and the lesions were assigned to the respective quartiles. The following scoring system was used: 0, no apparent lesions; 1, small erosions or ulcers (<0 1 mm); 2, medium ulcers (0.1-0.8 mm); 3, large confluent ulcers (>0.8 mm) In addition, the total area of the lesions was quantified by Image J software. The formalin-fixed tissue was embedded in paraffin, and 5-μm sections were stained with hematoxylin/eosin for histopathological evaluation. Serum activity of alkaline phosphatase (ALP) was measured with a kinetic colorimetric kit (BioAssay Systems, Hayward, Calif.).

[2] = system: serum alkaline phosphatase (ALP) activity; assay: Serum alkaline phosphatase activity as biomarker of enteropathy; assay type: in vivo, mice; conditions: Inh-1 pretreatment; 18 h post-DCF
Description: as §1, with “(Ramirez-[…]” for “(Ramirez-Alcantara”, “297:[…]-[…]” for “297:G990-G998”, “-80°” for “−80°”, “Next, the tissues were fixed in 10% zinc formalin for 24 hours, washed, and transferred to 70% ethanol.” left out, “The following scoring system was used: 0, no apparent lesions; 1, small erosions or ulcers (<0 1 mm); 2, medium ulcers (0.1-0.8 mm); 3, large confluent ulcers (>0.8 mm) In addition, the total area of the lesions was quantified by Image J software.” left out

[3] = cited from earlier work
[4] = mouse, in vivo, ip, 60 mg/kg
in vivo = conditions: male, C57BL/6, mouse, 60 mg/kg
[5] = humans, cited from earlier work
[6] = Pharmacokinetic profiling of diclofenac in mice with or without Inh-1 pretreatment; conditions: male, C57BL/6, mouse, in vivo, ip, 60 mg/kg

CCOc1ccc(NC(=S)N(CCO)Cc2cc3cc(C)cc(C)c3[nH]c2=O)cc1 [Inh-1, ((6,8-dimethyl-2-oxo-1,2-dihydroquinolin-3-yl)methyl)-3-(4-ethoxyphenyl)-1-(2-hydroxyethyl)thiourea]
inhibition of product (free DCF) formation (E. coli β-glucuronidase; increasing Inh-1 concentrations, DCF-AG 4 mM, FIG. 1B): concentration-dependent inhibition of product formation | inhibition at 100 µM (E. coli β-glucuronidase; read-out: inhibition of release of free DCF from DCF-AG): > 90% | ulcer size and number, quartiles 3 and 4 ([1]; Inh-1 10 μg/mouse po b.i.d. x2 days before DCF 60 mg/kg ip, 18 h post-DCF): greatly reduced both in size and number | histopathology: ulcers with loss of villi and inflammatory response ([1]; Inh-1 pretreatment plus DCF 60 mg/kg ip): largely prevented these changes | NBT-positive areas of ulceration, macroscopic ([1]; Inh-1 pretreatment plus DCF 60 mg/kg ip, jejunum, 18 h): absence of any large ulceration; also recorded: only few isolated and small NBT-positive areas | protection from DCF-induced acute small intestinal injury ([1]; mice, overall conclusion): significant protection | DCF-associated decrease in serum alkaline phosphatase (ALP) activity [2]: largely prevented

O=C(Cc1ccccc1Nc1c(Cl)cccc1Cl)O[C@@H]1O[C@H](C(=O)O)[C@@H](O)[C@H](O)[C@H]1O [DCF-AG, diclofenac 1-β-O-acyl glucuronide]
conversion of DCF-AG to its aglycone by purified enzyme (substrate) (E. coli β-glucuronidase; various concentrations, data not shown): converted DCF-AG (various concentrations) to its aglycone | amount of biliary DCF-AG relative to parent DCF ([3]; gallbladder-cannulated mice): 117 fold | amount of biliary DCF-AG relative to ring-hydroxylated DCF ([3]; gallbladder-cannulated mice): 22 fold | amount of DCF-AG in bile ([3]; mice): approximately 4 % of the dose

O=C(O)Cc1ccccc1Nc1c(Cl)cccc1Cl [Diclofenac, diclofenac]
small intestinal ulceration caused by DCF alone ([1]; DCF 60 mg/kg ip, single dose, 18 h): developed typical nitroblue tetrazolium-(NBT-) positive areas of ulceration in the jejunum and ileum | apparent Cmax [4]: high micromolar range | [14C]-DCF equivalents appearing in bile ([3]; during 60 minutes after intravenous 5 mg/kg in mice): 42% | Tmax (in vivo): 9.6 min | AUC(0-t) (in vivo; ip): 208 µg·h/mL | Cmax (in vivo; ip): 265 µg/mL | Tmax (in vivo; ip): 10 min | total DCF clearance in the form of glucuronides ([5]; including AGs of 4′-hydroxy-DCF): approximately 75% | DCF excreted via bile ([5]; initial studies): 10-20% | half-life [6]: 169 min
